Results as given in patent US8906111B2, “Artificial bone material having controlled calcium ion elution” (The University of Tokyo, priority 2008, dated 2014).

Assays:
[1] = tested on: Macrophage-like cells RAW267.4; test: Release of [3H] arachidonic acid (lipid mediator) from macrophage-like cells treated with CaCl2-gluconic acid solutions; type: cell-based; settings: FIG. 3
Protocol: An increased concentration of extracellular calcium ions activates an inflammatory response route through increase of intracellular calcium ion and/or a sensing mechanism of extracellular calcium ion. The present inventors studied whether induction of inflammatory responses due to increase of calcium ions can be prevented or not by chelating calcium ions. Solutions of 5 mM CaCl2—0.384% gluconic acid and 7.5 mM CaCl2—0.384% gluconic acid (referred to as Ca^2+Gluc.Acid), the pH of which were adjusted to approximately 7 with NaOH, were prepared and allowed to stand for one hour at room temperature. Macrophage-like cells RAW267.4, which were labeled with 1 μCi [^3H] arachidonic acid one day before, were treated with respective CaCl2-gluconic acid solutions for one hour, and measured for the amount of released lipid mediator with a liquid scintillation counter.
FIG. 3 is a graph, in place of a drawing, showing that gluconic acid prevents inflammatory responses induced by calcium ions. Each vertical axis of FIGS. 3A and 3B indicates release of arachidonic acid (rates of released [^3H] arachidonic acid). The higher value refers to more arachidonic acid being released, indicating an activation of arachidonate cascade, which is one of the major inflammatory responses. In FIG. 3, the “mock” refers to a sample without CaCl2 or gluconic acid addition, which was prepared as a control. […]

[2] = Chelating effect on calcium ion measured with a calcium ion electrode; type: physicochemical; settings: 0.25% to 25% gluconic acid containing 2.5 mM CaCl2, pH 7.0; FIG. 2
Protocol: To confirm chelating effects of gluconic acid on calcium ion, the concentration of calcium ion in the presence of gluconic acid was measured with a calcium ion electrode. The vertical axis of FIG. 2 indicates the concentration of calcium ion (Ca^2+) (mg/L). […] The results might be attributed to the gluconic acid chelating calcium ions.

SMILES	release of arachidonic acid (amount of released lipid mediator) ([1]; CaCl2 (5 mM or 7.5 mM) without gluconic acid, compared with the mock)	concentration of calcium ion (Ca2+) [2]	release of arachidonic acid (rates of released [3H] arachidonic acid) ([1]; 5 mM or 7.5 mM CaCl2 with 0.384% gluconic acid, pH approx. 7, cells treated one hour)
[Ca+2].[Cl-].[Cl-] [CaCl2]	released increased amount of lipid mediator		
O=C(O)[C@H](O)[C@@H](O)[C@H](O)[C@H](O)CO [gluconic acid]		the higher the concentration of gluconic acid became, the concentration of calcium ion lowered	arachidonate cascade activation was prevented
